Results taken from US20070021418A1, “Method of inhibiting production of osteopontin” (Kowa Co., LTD., priority 2003, published 2007).

System: OPN production in RPMI8226 cells
Test: OPN production inhibiting effect in cultured RPMI8226 cells (ELISA of culture supernatant)
Type: cell-based, human
Conditions: Homo sapiens, RPMI-8226, 72 h; RPMI8226 myeloma cells; 3 days prophase + 3 days anaphase culture; 0.1-10 μmol/L; OPN in culture supernatant by ELISA; logistic curve; read-out: IC50 (OPN production inhibition)
Experimental: Compounds 1 to 6 were separately dissolved in dimethylsulfoxide (DMSO) to prepare 20 mmol/L solutions of the respective compounds. Aliquots of those solutions were diluted further to prepare 6, 2, 0.6 and 0.2 mmol/L solutions of the respective compounds. The DMSO solutions of the respective compounds (1 to 6) (concentrations: 0.2 to 20 mmol/L) and DMSO (as a compound non-addition group) were separately diluted 1,000-fold with a culture medium (10% fetal-bovine-serum (FBS)-added RPMI-1640 medium) to prepare 0 (non-addition group), 0.2, 0.6, 2, 6 and 20 μmol/L solutions of the respective compounds (1-6).
3) Study on the OPN Production Inhibiting Effect of the Individual Compounds in RPMI8226 Cells
A 2×10^5 cells/mL cell suspension of RPMI8226 cells was prepared, and was seeded 2 mL by 2 mL per well on a 6-well plates. To the wells, the individual solutions prepared in the procedure 2) (the solutions of Compounds 1 to 6, having concentrations of 0 (non-addition group), 0.2, 0.6, 2, 6, and 20 μmol/L, respectively) were added 2 mL by 2 mL per well, followed by mixing to bring the final concentrations of Compound 1-6 in the individual wells to 0 (non-added group), 0.1, 0.3, 1, 3 and 10 μmol/L. The cells of those conditions were cultured as prophase culture at 37° C. for 3 days in the presence of 5% CO2.
After the above-described culture, the cells in the respective wells were collected, and were counted well by well. Those cells were again suspended separately in aliquots of a 2×10^5 cells/mL suspension, and the cells of the respective conditions were each seeded 0.5 mL by 0.5 mL per well in two wells. To the wells of the respective conditions, individual solutions prepared at the same concentrations as those at the time of the culture in a similar manner as in the prophase culture (individual solutions of Compounds 1 to 6, having concentrations of […], respectively) were added 0.5 mL by 0.5 mL per sell to the individual wells. After mixing, the cells were cultured as anaphase culture at 37° C. for 3 days in the presence of 5% CO2.
Subsequent to the completion of the anaphase culture, culture supernatants were separately collected from the respective wells, and the OPN concentrations in the individual culture supernatants were quantitated with an absorptiometer by ELISA (Human Osteopontin Measurement Kit IBL; IBL Co., Ltd.).
Using the SAS Preclinical Package, Version 5.0, the measurement values were analyzed by the following procedure. Described specifically, the concentrations were logarithmically converted (the compound non-addition group (0 μmol/L) was replaced by 1 pmol/L), and using the measurement values (6 concentrations, 2 measurement values per concentration, 12 measurement values in total), plotting into a logistic curve was conducted. From the curve, concentrations (IC50) which give 50% reactivity were calculated.

Row | SMILES | IC50
1 | CCn1nc(-c2ccc(OC)cc2)c(-c2ccc(OC)cc2)cc1=O [Compound 6, 5,6-bis(4-methoxyphenyl)-2-ethyl-2H-pyridazin-3-one] | 1120 nM
2 | COc1ccc(-c2cc(=O)n(CC=Cc3ccc(Cl)cc3)nc2-c2ccc(OC)cc2)cc1 [Compound 3, 5,6-bis(4-methoxyphenyl)-2-(4-chlorocinnamyl)-2H-pyridazin-3-one] | 2760 nM

Further lines, results first:

Row | IC50 | SMILES
3 | 2090 nM | CSc1ccc(-c2nn(Cc3ccccn3)c(=S)cc2-c2ccc(Cl)cc2)cc1 [Compound 1, 5-(4-chlorophenyl)-6-[4-(methylthio)phenyl]-2-(2-pyridylmethyl)-2H-pyridazine-3-thione methanesulfonate]
4 | 2560 nM | CSc1ccc(-c2nn(Cc3ccccc3)c(=O)cc2-c2ccc(Cl)cc2)cc1 [Compound 4, 2-benzyl-5-(4-chlorophenyl)-6-[4-(methylthio)phenyl]-2H-pyridazin-3-one]
5 | 2910 nM | CSc1ccc(-c2nn(Cc3cccnc3)c(=O)cc2-c2ccc(Cl)cc2)cc1 [Compound 2, 5-(4-chlorophenyl)-6-[4-(methylthio)phenyl]-2-(3-pyridylmethyl)-2H-pyridazin-3-one methanesulfonate]

Same assay, conditions: RPMI8226 myeloma cells; 3 days prophase + 3 days anaphase culture; 0.1-10 μmol/L; OPN in culture supernatant by ELISA; logistic curve; read-out: IC50 (OPN production inhibition)

Row | IC50 | SMILES
6 | 2420 nM | COc1ccc(-c2nn(Cc3ccc(Cl)cc3)c(=O)cc2-c2ccncc2)cc1 [Compound 5]
